# Laboratory results: ChEMBL document CHEMBL5465560, “Selectivity Literature for EUbOPEN Chemogenomic Library” (2024)
# What was measured:
# [1] = target: BDNF/NT-3 growth factors receptor (Homo sapiens) (UniProt Q16620); settings: at 10 µM
# [2] = target: T1, Peripheral plasma membrane protein CASK (Homo sapiens) (UniProt O14936); assay: Selectivity interaction (Ambit KINOMEscan and KiNATiv profiling in Jurkat cells) EUB0000090b CASK; assay type: cell-based; settings: at 1 µM
# T1 sequence (whole entry): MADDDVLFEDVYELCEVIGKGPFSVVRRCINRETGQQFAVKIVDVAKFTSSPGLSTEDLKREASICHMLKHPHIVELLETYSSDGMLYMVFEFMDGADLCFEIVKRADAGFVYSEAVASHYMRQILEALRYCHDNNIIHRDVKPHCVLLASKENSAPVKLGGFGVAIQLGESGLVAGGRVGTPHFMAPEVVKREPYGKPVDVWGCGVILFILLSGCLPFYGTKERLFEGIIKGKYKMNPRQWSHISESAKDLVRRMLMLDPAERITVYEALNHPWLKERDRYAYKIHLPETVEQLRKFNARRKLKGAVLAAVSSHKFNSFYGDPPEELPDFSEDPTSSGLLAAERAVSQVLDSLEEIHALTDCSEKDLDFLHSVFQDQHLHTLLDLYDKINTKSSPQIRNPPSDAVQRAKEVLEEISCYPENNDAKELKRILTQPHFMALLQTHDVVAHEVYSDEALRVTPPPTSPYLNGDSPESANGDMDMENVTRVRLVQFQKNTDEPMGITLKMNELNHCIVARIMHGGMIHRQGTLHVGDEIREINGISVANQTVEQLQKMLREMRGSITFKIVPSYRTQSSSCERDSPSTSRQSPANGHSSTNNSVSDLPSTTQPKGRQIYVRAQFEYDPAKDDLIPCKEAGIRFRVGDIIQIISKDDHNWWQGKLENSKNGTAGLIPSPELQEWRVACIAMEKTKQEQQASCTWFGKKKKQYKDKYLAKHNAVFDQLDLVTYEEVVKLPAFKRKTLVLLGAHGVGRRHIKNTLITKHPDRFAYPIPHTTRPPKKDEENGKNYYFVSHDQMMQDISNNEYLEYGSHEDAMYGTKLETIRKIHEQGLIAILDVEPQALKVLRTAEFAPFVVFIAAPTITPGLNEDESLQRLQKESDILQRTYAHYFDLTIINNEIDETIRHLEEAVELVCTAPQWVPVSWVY
# [3] = target: T2, Dual specificity mitogen-activated protein kinase kinase 7 (Homo sapiens) (UniProt O14733); assay: Selectivity interaction (Millipore kinase profiler) EUB0000124b MAP2K7; settings: at 10 µM
# T2 sequence (whole entry): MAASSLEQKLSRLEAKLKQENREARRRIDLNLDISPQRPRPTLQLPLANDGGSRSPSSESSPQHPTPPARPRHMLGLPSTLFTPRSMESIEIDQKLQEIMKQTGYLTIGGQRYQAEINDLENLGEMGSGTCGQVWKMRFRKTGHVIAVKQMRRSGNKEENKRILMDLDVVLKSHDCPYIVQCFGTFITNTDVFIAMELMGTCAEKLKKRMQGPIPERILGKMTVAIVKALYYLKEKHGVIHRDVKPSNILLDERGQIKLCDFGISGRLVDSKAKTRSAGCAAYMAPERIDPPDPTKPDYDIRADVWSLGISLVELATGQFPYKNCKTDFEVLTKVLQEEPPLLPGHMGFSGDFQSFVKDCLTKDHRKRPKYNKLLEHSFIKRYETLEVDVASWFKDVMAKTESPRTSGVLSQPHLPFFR
# [4] = target: Serine/threonine-protein kinase N2 (Homo sapiens, UniProt Q16513); assay: Selectivity interaction (KinomeScan (DiscoverX)) EUB0000618a PKN2; settings: at 10 µM
# [5] = target: Cyclin-dependent kinase 13 (Homo sapiens, UniProt Q14004); assay: Selectivity interaction (KinomeScan (DiscoverX)) EUB0000045b CDK13
# [6] = target: Ephrin type-A receptor 5 (Homo sapiens) (UniProt P54756); assay: Selectivity interaction (KinomeScan (DiscoverX)) EUB0000045b EPHA5
# [7] = target: Cyclin-dependent kinase 5 (Homo sapiens, UniProt Q00535); assay: Selectivity interaction (KinomeScan (DiscoverX)) EUB0000595a CDK5; settings: at 10 µM
# [8] = target: Serine/threonine-protein kinase 10 (Homo sapiens) (UniProt O94804); assay: Selectivity interaction (Upstate Kinase Profiler service (Millipore)) EUB0000056c STK10; settings: at 1 µM
# [9] = target: Casein kinase I isoform gamma-1 (Homo sapiens) (UniProt Q9HCP0); settings: at 10 µM
# [10] = target: Mitogen-activated protein kinase 4 (Homo sapiens) (UniProt P31152); settings: at 10 µM
# [11] = target: Mitogen-activated protein kinase 9 (Homo sapiens, UniProt P45984); assay: Selectivity interaction (Kinase panel (Invitrogen)) EUB0000639a MAPK9; settings: at 200 nM
# Misshapen-like kinase 1 = Misshapen-like kinase 1 (Homo sapiens, UniProt Q8N4C8); assay: Selectivity interaction (Kinase panel (Invitrogen)) EUB0000639a MINK1; settings: at 200 nM
# [12] = target: Protein-tyrosine kinase 2-beta (Homo sapiens) (UniProt Q14289); assay: Selectivity interaction (ActivX KiNativ screen (kinase selectivity in THP-1 cell lysates)) EUB0000639a PTK2B; assay type: subcellular; settings: lysate, at 5 µM
# [13] = target: Dual specificity protein kinase CLK3 (Homo sapiens, UniProt P49761); assay: Selectivity interaction (Enzymatic assay (Eurofins)) EUB0001049a CLK3
# D(2) dopamine receptor = D(2) dopamine receptor (Homo sapiens, UniProt P14416); assay: Selectivity interaction (Panel of kinases, GPCRs, ion channels and transporters (enzymatic assay)) EUB0000223bCl DRD2
# [14] = target: T3, Casein kinase I isoform alpha-like (Homo sapiens) (UniProt Q8N752); assay: Selectivity interaction (KinomeScan (DiscoverX)) EUB0000666a CSNK1A1L; settings: at 10 µM
# T3 sequence (whole entry): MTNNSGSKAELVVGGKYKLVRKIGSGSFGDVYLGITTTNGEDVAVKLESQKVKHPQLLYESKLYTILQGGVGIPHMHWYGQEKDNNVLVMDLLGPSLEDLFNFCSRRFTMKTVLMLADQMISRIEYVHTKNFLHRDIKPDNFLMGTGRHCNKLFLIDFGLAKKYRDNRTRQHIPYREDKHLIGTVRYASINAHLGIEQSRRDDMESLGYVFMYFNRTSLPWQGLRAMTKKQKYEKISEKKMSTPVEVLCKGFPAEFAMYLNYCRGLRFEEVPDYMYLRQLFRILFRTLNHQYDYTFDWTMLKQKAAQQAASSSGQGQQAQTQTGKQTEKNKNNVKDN
# [15] = target: ALK tyrosine kinase receptor (Homo sapiens, UniProt Q9UM73); assay: Selectivity interaction (KinomeScan (DiscoverX)) EUB0000092b ALK; settings: at 10 µM
# [16] = target: Glycogen synthase kinase-3 alpha (Homo sapiens, UniProt P49840); assay: Selectivity interaction (KinomeScan (DiscoverX)) EUB0000092b GSK3A; settings: at 10 µM
# Chain of Glycogen synthase kinase-3 alpha (P49840 2-483 limits assumed): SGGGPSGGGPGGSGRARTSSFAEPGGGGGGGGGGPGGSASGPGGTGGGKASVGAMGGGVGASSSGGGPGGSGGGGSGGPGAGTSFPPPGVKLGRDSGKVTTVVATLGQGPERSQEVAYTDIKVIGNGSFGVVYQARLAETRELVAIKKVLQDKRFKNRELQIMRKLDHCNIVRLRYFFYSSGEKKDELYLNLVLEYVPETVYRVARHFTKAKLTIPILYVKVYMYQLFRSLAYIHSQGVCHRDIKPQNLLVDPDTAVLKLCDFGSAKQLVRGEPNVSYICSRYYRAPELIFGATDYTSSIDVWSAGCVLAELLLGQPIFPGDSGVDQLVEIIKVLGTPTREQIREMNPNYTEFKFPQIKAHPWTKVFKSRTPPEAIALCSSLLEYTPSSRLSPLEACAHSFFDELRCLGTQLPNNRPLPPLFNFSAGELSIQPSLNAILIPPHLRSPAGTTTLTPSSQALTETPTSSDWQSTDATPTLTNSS
# Chain of Ephrin type-A receptor 5 (Homo sapiens) (P54756 whole entry): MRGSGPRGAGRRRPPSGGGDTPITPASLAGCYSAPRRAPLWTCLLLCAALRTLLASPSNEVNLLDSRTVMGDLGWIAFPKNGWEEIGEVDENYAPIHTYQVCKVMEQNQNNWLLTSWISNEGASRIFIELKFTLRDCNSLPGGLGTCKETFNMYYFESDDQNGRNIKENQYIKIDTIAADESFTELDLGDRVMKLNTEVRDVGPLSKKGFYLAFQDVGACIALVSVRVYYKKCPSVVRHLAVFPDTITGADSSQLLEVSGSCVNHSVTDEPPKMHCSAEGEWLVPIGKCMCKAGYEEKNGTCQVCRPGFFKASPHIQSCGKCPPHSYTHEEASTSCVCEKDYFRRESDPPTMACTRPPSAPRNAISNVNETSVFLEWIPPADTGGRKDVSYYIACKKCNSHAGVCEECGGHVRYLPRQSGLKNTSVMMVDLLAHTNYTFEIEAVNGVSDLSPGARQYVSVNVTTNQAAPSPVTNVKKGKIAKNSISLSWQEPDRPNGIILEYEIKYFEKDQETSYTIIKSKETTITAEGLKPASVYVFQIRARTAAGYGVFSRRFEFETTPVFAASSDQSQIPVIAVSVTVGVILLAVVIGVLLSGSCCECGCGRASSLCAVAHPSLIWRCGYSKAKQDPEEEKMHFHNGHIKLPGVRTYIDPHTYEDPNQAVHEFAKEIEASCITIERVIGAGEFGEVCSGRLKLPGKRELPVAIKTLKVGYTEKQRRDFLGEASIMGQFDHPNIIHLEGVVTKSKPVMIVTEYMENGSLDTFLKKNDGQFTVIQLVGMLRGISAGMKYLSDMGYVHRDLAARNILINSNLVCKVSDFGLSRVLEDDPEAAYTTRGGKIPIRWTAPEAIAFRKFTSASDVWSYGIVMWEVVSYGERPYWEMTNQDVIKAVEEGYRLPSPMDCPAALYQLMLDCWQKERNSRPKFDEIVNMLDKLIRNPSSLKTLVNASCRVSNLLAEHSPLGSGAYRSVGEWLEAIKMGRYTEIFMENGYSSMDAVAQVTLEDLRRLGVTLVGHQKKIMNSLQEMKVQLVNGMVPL
# Chain of Cyclin-dependent kinase 13 (Q14004 whole entry, looked up): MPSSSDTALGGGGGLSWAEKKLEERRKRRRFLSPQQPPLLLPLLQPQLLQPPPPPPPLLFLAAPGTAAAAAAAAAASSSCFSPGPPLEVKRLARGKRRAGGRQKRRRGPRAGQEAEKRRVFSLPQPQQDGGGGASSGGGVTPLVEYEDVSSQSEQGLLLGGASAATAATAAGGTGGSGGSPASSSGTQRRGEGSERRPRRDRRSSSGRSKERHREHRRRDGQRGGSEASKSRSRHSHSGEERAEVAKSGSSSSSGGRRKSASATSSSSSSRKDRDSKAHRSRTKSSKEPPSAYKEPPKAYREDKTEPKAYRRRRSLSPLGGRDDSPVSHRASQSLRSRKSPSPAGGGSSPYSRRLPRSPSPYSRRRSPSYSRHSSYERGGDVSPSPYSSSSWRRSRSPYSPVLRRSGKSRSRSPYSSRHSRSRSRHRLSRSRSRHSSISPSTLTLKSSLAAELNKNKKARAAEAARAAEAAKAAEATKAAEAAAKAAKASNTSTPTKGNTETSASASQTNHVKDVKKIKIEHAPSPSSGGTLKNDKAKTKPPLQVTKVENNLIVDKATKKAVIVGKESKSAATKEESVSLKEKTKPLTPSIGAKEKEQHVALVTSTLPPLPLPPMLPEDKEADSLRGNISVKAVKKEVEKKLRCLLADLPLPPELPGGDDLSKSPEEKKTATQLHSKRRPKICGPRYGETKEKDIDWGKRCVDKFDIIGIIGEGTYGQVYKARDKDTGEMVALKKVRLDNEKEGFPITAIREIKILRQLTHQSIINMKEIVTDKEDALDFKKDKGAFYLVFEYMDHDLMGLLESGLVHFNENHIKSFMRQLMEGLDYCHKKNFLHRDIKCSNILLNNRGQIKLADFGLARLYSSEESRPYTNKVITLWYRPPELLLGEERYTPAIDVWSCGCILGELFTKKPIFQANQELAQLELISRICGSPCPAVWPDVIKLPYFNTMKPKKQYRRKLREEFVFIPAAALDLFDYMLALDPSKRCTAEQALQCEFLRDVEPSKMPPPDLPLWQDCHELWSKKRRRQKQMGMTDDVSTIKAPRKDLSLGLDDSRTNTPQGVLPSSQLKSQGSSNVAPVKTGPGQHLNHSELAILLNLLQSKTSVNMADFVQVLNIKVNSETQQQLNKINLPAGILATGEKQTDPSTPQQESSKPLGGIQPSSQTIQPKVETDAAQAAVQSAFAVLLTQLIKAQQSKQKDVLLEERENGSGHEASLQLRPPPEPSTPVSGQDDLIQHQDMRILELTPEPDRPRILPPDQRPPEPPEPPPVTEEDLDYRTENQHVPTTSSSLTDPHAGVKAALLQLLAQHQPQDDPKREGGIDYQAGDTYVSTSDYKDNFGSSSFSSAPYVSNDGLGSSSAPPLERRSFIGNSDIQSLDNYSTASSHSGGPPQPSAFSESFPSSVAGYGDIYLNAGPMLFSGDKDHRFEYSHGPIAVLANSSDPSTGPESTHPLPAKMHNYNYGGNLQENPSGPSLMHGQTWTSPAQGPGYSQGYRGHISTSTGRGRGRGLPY
# Chain of Casein kinase I isoform gamma-1 (Homo sapiens) (Q9HCP0 whole entry, looked up, canonical isoform): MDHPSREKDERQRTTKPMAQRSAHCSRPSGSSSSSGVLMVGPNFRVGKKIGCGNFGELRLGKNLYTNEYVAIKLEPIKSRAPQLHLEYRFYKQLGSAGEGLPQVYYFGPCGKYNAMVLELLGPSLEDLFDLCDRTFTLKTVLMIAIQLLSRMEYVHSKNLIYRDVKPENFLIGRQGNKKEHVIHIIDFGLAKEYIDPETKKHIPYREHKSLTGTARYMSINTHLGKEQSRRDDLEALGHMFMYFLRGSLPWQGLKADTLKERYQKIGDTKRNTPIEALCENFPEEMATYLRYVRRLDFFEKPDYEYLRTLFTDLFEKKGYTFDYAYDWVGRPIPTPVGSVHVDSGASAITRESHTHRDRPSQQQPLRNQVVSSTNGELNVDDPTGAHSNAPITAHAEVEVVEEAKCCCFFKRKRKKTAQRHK
# Chain of Misshapen-like kinase 1 (Q8N4C8 whole entry, looked up): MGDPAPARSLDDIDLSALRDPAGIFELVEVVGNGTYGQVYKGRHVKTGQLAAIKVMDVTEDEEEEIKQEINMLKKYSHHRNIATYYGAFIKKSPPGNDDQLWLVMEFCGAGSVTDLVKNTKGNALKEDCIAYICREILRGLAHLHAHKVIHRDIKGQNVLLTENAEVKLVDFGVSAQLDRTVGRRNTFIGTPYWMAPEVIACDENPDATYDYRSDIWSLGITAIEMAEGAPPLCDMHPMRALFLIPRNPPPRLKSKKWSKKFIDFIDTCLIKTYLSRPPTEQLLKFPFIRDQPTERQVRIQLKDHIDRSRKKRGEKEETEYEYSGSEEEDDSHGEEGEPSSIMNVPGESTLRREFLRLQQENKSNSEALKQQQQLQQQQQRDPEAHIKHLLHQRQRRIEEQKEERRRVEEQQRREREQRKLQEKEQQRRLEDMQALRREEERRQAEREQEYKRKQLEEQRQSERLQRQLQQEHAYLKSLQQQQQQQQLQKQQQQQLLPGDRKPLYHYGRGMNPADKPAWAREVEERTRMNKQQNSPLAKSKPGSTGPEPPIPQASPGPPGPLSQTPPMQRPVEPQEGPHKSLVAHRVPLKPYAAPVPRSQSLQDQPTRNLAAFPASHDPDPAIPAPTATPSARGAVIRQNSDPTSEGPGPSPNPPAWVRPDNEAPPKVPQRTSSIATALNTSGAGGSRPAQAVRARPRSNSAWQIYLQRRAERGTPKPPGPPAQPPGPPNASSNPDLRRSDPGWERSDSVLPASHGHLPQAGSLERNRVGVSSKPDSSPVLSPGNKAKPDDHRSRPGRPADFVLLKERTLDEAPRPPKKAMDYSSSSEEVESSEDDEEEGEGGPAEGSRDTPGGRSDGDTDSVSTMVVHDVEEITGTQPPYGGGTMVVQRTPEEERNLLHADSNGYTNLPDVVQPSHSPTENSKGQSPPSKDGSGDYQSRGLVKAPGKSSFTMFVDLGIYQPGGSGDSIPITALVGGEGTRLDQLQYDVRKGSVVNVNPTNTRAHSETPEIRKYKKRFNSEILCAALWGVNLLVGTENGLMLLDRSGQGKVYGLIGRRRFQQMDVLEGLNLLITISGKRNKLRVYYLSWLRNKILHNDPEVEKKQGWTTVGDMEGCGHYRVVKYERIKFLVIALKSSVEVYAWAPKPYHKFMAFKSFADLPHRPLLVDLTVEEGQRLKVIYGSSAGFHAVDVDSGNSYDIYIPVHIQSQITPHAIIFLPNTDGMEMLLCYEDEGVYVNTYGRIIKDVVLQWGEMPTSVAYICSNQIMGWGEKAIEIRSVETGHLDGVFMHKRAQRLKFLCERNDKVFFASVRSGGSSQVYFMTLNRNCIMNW
# Chain of Cyclin-dependent kinase 5 (Q00535 whole entry, looked up): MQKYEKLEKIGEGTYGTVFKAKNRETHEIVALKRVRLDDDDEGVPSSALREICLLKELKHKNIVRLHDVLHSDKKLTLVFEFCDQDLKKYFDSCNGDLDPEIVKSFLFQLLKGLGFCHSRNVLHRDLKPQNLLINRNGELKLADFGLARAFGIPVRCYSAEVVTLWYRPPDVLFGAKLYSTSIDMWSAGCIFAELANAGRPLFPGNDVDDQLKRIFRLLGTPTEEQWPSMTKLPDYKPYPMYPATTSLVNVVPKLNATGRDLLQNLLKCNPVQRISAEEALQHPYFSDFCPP
smiles,measurement,setting,value
CCN(CC)CCCCNc1ncc2cc(-c3cc(OC)cc(OC)c3)c(NC(=O)NC(C)(C)C)nc2n1,% of control,[1],100%
CN(C)C/C=C/C(=O)Nc1ccc(C(=O)N2CCCC(Nc3ncc(Cl)c(-c4c[nH]c5ccccc45)n3)C2)cc1 (stereo not given),% of control,[2],90%
CC(=O)Nc1cccc(-n2c(=O)n(C3CC3)c(=O)c3c(Nc4ccc(I)cc4F)n(C)c(=O)c(C)c32)c1,% of control,[3],109%
O[C@H]1CC[C@H](Nc2ncc3nc(Nc4c(F)cc(F)cc4F)n([C@H]4CCOC4)c3n2)CC1,% of control,[4],97%
C=CC(=O)Nc1cc(-n2c(=O)ccc3cnc4ccc(-c5ccc(NS(C)(=O)=O)cc5)cc4c32)ccc1C,% of control,[5]; at 1 µM,100%
same,% of control,[5]; at 10 µM,100%
same,% of control,[6]; at 1 µM,100%
same,% of control,[6]; at 10 µM,97%
COCC(=O)NC/C=C/c1ccc2ncnc(Nc3ccc(Oc4ccc(C)nc4)c(C)c3)c2c1 [CP-724714],% of control,[7],100%
Cc1ccc(-c2ccc3c(ccc4sc5c(c43)NC[C@@H](C)NC5=O)n2)cn1,% of inhibition,[8],47%
Cc1cc([C@@H](C)Nc2ccccc2C(=O)O)c2nc(N3CCOCC3)cc(=O)n2c1 [AZD-6482],% of control,[9],68%
same,% of control,[10],98%
CC[C@@H]1[C@H](F)C(=O)N[C@@H]1COc1nccc2cc(C(N)=O)c(OC)cc12 [ZIMLOVISERTIB],% of inhibition,[11],0.603%
same,% of inhibition,Misshapen-like kinase 1,18.8%
same,% of inhibition,[12],11.6%
COc1cc(Nc2nc(C)cc(-c3cnn4nc(OC)ccc34)n2)cc(C(F)(F)F)c1,IC50,[13],> 10 µM
COc1cc(C(=O)N2CC[C@@H](O)[C@@H](N)C2)cc2nc(-c3cc4ccccc4n3CC3CC3)n(C)c12,pXC50,D(2) dopamine receptor,4.6 M
O=C(NOC[C@H](O)CO)c1ccc(F)c(F)c1Nc1ccc(I)cc1F,% of control,[14],80%
CCC(=O)N1CCN(c2ccc(-n3c(=O)ccc4cnc5ccc(-c6cnc7ccccc7c6)cc5c43)cc2C(F)(F)F)CC1,% of control,[15],80%
same,% of control,[16],93%
